Results as given in publication PMC8956665, “Structural and molecular rationale for the diversification of resistance mediated by the Antibiotic_NAT family” (Communications Biology, 2022).
Like-named read-outs stand apart in the source and are kept apart here.

Key:
meta-AAC0038 [1] = details: ternary complex with CoA; 10 mM apramycin, 20% PEG 3350, 50 mM ADA pH 7; catalytically inactive mutant; active site cleft
meta-AAC0038 [2] = details: binary complex; catalytically inactive mutant
AAC(3)-IVa [3] = target: AAC(3)-IVa
AAC(3)-IVa [4] = assay: crystal structure

Chain of meta-AAC0038 (A0A059X981 entry or part of it H168A): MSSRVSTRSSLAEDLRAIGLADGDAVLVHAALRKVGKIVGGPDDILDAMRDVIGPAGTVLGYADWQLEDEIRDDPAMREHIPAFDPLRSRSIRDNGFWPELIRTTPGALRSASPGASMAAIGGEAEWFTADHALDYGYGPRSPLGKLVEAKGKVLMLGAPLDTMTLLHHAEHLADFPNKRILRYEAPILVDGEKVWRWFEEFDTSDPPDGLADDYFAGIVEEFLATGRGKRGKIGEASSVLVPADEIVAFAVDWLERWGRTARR

For `CN[C@@H]1[C@@H](O[C@H]2O[C@H](CO)[C@@H](N)[C@H](O)[C@H]2O)O[C@H]2C[C@@H](N)[C@@H](O[C@H]3[C@H](O)[C@@H](O)[C@H](N)C[C@@H]3N)O[C@@H]2[C@@H]1O` [APR, apramycin], the “X-ray crystal structure, co-crystallization” value (meta-AAC0038 [1]) was “crystal structures of the ternary meta-AAC0038^H168A•apramycin•CoA”.
For `CC(=O)SCCNC(=O)CCNC(=O)[C@H](O)C(C)(C)COP(=O)(O)OP(=O)(O)OC[C@H]1O[C@@H](n2cnc3c(N)ncnc32)[C@H](O)[C@@H]1OP(=O)(O)O` [AcCoA, acetyl-CoA], the X-ray crystal structure (meta-AAC0038 [2]) was “the binary meta-AAC0038^H168A•acetyl-CoA complexes”.
For AAC(3)-IVa (enzyme), the stoichiometry N (AAC(3)-IVa [3]) was 2 and the stoichiometry N (AAC(3)-IVa [4]) was 2.
